Laboratory results published in publication PMC4893628, “Chalcone-based Selective Inhibitors of a C4 Plant Key Enzyme as Novel Potential Herbicides” (Scientific Reports, 2016).
Like-named read-outs stand apart in the source and are kept apart here.

Key:
F. trinervia PEPC = target: T1, F. trinervia PEPC (Flaveria trinervia, UniProt P30694); experiment: biochemical; type: biochemical; conditions: for Selectivity C4/C3: C4 PEPC over C3 isoform; for IC50: C4 PEPC
T1 construct: the full-length ppcA gene of PEPC from F. trinervia (EMBL-Bank X61304); made in house; host or cells: Escherichia coli BL21(DE3)
T1 sequence (P30694 1-966): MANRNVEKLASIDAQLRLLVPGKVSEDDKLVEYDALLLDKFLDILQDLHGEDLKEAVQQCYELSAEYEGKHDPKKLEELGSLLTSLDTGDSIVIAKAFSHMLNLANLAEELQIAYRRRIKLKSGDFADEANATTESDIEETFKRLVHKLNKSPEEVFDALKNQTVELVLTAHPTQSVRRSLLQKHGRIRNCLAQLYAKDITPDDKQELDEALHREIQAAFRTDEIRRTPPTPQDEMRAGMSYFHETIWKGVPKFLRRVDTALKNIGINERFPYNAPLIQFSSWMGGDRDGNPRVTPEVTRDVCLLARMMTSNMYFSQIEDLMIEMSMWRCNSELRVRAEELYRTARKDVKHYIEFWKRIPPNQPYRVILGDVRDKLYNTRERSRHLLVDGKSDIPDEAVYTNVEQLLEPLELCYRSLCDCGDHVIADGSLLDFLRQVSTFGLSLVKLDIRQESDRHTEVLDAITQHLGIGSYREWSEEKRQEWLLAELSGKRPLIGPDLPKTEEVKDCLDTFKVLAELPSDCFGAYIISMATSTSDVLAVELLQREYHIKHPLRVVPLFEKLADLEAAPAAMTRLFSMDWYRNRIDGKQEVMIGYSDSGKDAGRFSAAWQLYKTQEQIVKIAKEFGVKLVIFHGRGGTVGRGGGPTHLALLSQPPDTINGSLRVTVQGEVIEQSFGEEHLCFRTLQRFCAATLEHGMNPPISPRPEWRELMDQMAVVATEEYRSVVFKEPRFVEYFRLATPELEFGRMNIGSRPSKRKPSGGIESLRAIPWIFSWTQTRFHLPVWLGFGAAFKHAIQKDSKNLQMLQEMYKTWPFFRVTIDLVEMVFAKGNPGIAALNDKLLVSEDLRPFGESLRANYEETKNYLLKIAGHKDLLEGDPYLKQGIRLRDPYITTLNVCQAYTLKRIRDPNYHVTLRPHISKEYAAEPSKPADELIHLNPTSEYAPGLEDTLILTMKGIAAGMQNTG

Bacillus subtilis 168 = experiment: Bacterial growth in microscale cultivation, B. subtilis; type: cell-based; conditions: relative to control
Summary of the method: (§1)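 Inhibitors in DMSO were added to the medium, at a maximum of 400 μM for trans-chalcone and 100 μM for 2'-hydroxychalcone. Cultures were seeded at OD600 0.5, or 0.25 for B. subtilis, and growth was followed as 620 nm backscatter in a BioLector at 1200 rpm. Final backscatter, growth rate and lag phase were compared with DMSO controls.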

[1] = tested on: Escherichia coli K-12 MG1655; experiment: Bacterial growth in microscale cultivation, E. coli; type: cell-based; conditions: relative to control; for activity at 4 µM / activity at 40 µM / activity at 400 µM: Escherichia coli
Summary of the method: as §1

[2] = tested on: Corynebacterium glutamicum ATCC13032; experiment: Bacterial growth in microscale cultivation, C. glutamicum; type: cell-based; conditions: relative to control; for activity at 4 µM / activity at 40 µM / activity at 400 µM: Corynebacterium glutamicum
Summary of the method: as §1

[3] = Bacillus subtilis, 168, complex medium, 4 µM, read-out: Final Backscatter
[4] = Bacillus subtilis, 168, complex medium, 4 µM, read-out: Growth rate
[5] = Bacillus subtilis, 168, complex medium, 40 µM, read-out: Final Backscatter
[6] = Bacillus subtilis, 168, complex medium, 40 µM, read-out: Growth rate
[7] = Bacillus subtilis, 168, complex medium, 400 µM, read-out: Final Backscatter
[8] = Bacillus subtilis, 168, complex medium, 400 µM, read-out: Growth rate
[9] = Bacillus subtilis, 168, minimal medium, 4 µM, read-out: Final Backscatter
[10] = Bacillus subtilis, 168, minimal medium, 4 µM, read-out: Growth rate
[11] = Bacillus subtilis, 168, minimal medium, 40 µM, read-out: Final Backscatter
[12] = Bacillus subtilis, 168, minimal medium, 40 µM, read-out: Growth rate
[13] = Bacillus subtilis, 168, minimal medium, 400 µM, read-out: Final Backscatter
[14] = Bacillus subtilis, 168, minimal medium, 400 µM, read-out: Growth rate
[15] = MG1655, complex medium, 4 µM, read-out: Final Backscatter
[16] = MG1655, complex medium, 4 µM, read-out: Growth rate
[17] = MG1655, complex medium, 40 µM, read-out: Final Backscatter
[18] = MG1655, complex medium, 40 µM, read-out: Growth rate
[19] = MG1655, complex medium, 400 µM, read-out: Final Backscatter
[20] = MG1655, complex medium, 400 µM, read-out: Growth rate
[21] = MG1655, minimal medium, 4 µM, read-out: Final Backscatter
[22] = MG1655, minimal medium, 4 µM, read-out: Growth rate
[23] = MG1655, minimal medium, 40 µM, read-out: Final Backscatter
[24] = MG1655, minimal medium, 40 µM, read-out: Growth rate
[25] = MG1655, minimal medium, 400 µM, read-out: Final Backscatter
[26] = MG1655, minimal medium, 400 µM, read-out: Growth rate
[27] = ATCC13032, complex medium, 4 µM, read-out: Final Backscatter
[28] = ATCC13032, complex medium, 4 µM, read-out: Growth rate
[29] = ATCC13032, complex medium, 40 µM, read-out: Final Backscatter
[30] = ATCC13032, complex medium, 40 µM, read-out: Growth rate
[31] = ATCC13032, complex medium, 400 µM, read-out: Final Backscatter
[32] = ATCC13032, complex medium, 400 µM, read-out: Growth rate
[33] = ATCC13032, minimal medium, 4 µM, read-out: Final Backscatter
[34] = ATCC13032, minimal medium, 4 µM, read-out: Growth rate
[35] = ATCC13032, minimal medium, 40 µM, read-out: Final Backscatter
[36] = ATCC13032, minimal medium, 40 µM, read-out: Growth rate
[37] = ATCC13032, minimal medium, 400 µM, read-out: Final Backscatter
[38] = ATCC13032, minimal medium, 400 µM, read-out: Growth rate

SMILES: O=C(/C=C/c1ccc(O)cc1)c1ccc(O)cc1O [Compound 6, 2′,4′,4-Trihydroxychalcone]
- Selectivity C4/C3 (F. trinervia PEPC): 1.5 fold
- IC50 (F. trinervia PEPC; IC50 F. trinervia PEPC): 38.2 ± 10.9 µM
- activity at 4 µM (Bacillus subtilis 168; [3]): 97.3%
- activity at 4 µM (Bacillus subtilis 168; [4]): 107%
- activity at 40 µM (Bacillus subtilis 168; [5]): 99.9%
- activity at 40 µM (Bacillus subtilis 168; [6]): 107%
- activity at 400 µM (Bacillus subtilis 168; [7]): 91.1%
- activity at 400 µM (Bacillus subtilis 168; [8]): 109%
- activity at 4 µM (Bacillus subtilis 168; [9]): 100%
- activity at 4 µM (Bacillus subtilis 168; [10]): 103%
- activity at 40 µM (Bacillus subtilis 168; [11]): 99.7%
- activity at 40 µM (Bacillus subtilis 168; [12]): 99%
- activity at 400 µM (Bacillus subtilis 168; [13]): 101%
- activity at 400 µM (Bacillus subtilis 168; [14]): 88.2%
- Lag Phase (Bacillus subtilis 168; complex medium, 4 µM): 100,0%
- Lag Phase (Bacillus subtilis 168; complex medium, 40 µM): 102,6%
- Lag Phase (Bacillus subtilis 168; complex medium, 400 µM): 128,1%
- Lag Phase (Bacillus subtilis 168; minimal medium, 4 µM): 98,9%
- Lag Phase (Bacillus subtilis 168; minimal medium, 40 µM): 102,2%
- Lag Phase (Bacillus subtilis 168; minimal medium, 400 µM): 116,3%
- activity at 4 µM [1, 15]: 98.8%
- activity at 4 µM [1, 16]: 96%
- activity at 40 µM [1, 17]: 99.5%
- activity at 40 µM [1, 18]: 99.1%
- activity at 400 µM [1, 19]: 95%
- activity at 400 µM [1, 20]: 89.8%
- activity at 4 µM [1, 21]: 100%
- activity at 4 µM [1, 22]: 101%
- activity at 40 µM [1, 23]: 98.8%
- activity at 40 µM [1, 24]: 107%
- activity at 400 µM [1, 25]: 97.7%
- activity at 400 µM [1, 26]: 96.4%
- Lag Phase ([1]; complex medium, 4 µM): 100,0%
- Lag Phase ([1]; complex medium, 40 µM): 100,0%
- Lag Phase ([1]; complex medium, 400 µM): 107,4%
- Lag Phase ([1]; minimal medium, 4 µM): 101,8%
- Lag Phase ([1]; minimal medium, 40 µM): 103,5%
- Lag Phase ([1]; minimal medium, 400 µM): 101,8%
- activity at 4 µM [2, 27]: 99.8%
- activity at 4 µM [2, 28]: 99.5%
- activity at 40 µM [2, 29]: 98.2%
- activity at 40 µM [2, 30]: 101%
- activity at 400 µM [2, 31]: 97.7%
- activity at 400 µM [2, 32]: 79.8%
- activity at 4 µM [2, 33]: 100%
- activity at 4 µM [2, 34]: 101%
- activity at 40 µM [2, 35]: 101%
- activity at 40 µM [2, 36]: 97.7%
- activity at 400 µM [2, 37]: 101%
- activity at 400 µM [2, 38]: 80.5%
- Lag Phase ([2]; complex medium, 4 µM): 99,3%
- Lag Phase ([2]; complex medium, 40 µM): 101,3%
- Lag Phase ([2]; complex medium, 400 µM): 105,3%
- Lag Phase ([2]; minimal medium, 4 µM): 98,5%
- Lag Phase ([2]; minimal medium, 40 µM): 101,5%
- Lag Phase ([2]; minimal medium, 400 µM): 127,6%

SMILES: O=C(/C=C/c1ccccc1O)c1ccc(O)cc1O [Compound 7, 2′,4′,2-Trihydroxychalcone]
- Selectivity C4/C3 (F. trinervia PEPC): 2.3 fold
- IC50 (F. trinervia PEPC; read-out: IC50 F. trinervia PEPC): 28.2 ± 2.2 µM
- activity at 4 µM (Bacillus subtilis 168; [3]): 99.9%
- activity at 4 µM (Bacillus subtilis 168; [4]): 95.9%
- activity at 40 µM (Bacillus subtilis 168; [5]): 102%
- activity at 40 µM (Bacillus subtilis 168; [6]): 104%
- activity at 400 µM (Bacillus subtilis 168; [7]): 98.3%
- activity at 400 µM (Bacillus subtilis 168; [8]): 92.5%
- activity at 4 µM (Bacillus subtilis 168; [9]): 98.8%
- activity at 4 µM (Bacillus subtilis 168; [10]): 107%
- activity at 40 µM (Bacillus subtilis 168; [11]): 98.5%
- activity at 40 µM (Bacillus subtilis 168; [12]): 107%
- activity at 400 µM (Bacillus subtilis 168; [13]): 95.3%
- activity at 400 µM (Bacillus subtilis 168; [14]): 70.4%
- Lag Phase (Bacillus subtilis 168; complex medium, 4 µM): 100,0%
- Lag Phase (Bacillus subtilis 168; complex medium, 40 µM): 107,1%
- Lag Phase (Bacillus subtilis 168; complex medium, 400 µM): 185,2%
- Lag Phase (Bacillus subtilis 168; minimal medium, 4 µM): 104,9%
- Lag Phase (Bacillus subtilis 168; minimal medium, 40 µM): 106,1%
- Lag Phase (Bacillus subtilis 168; minimal medium, 400 µM): 143,2%
- activity at 4 µM [1, 15]: 97.2%
- activity at 4 µM [1, 16]: 93.3%
- activity at 40 µM [1, 17]: 97.3%
- activity at 40 µM [1, 18]: 90.7%
- activity at 400 µM [1, 19]: 93%
- activity at 400 µM [1, 20]: 104%
- activity at 4 µM [1, 21]: 98.2%
- activity at 4 µM [1, 22]: 99.2%
- activity at 40 µM [1, 23]: 97.2%
- activity at 40 µM [1, 24]: 105%
- activity at 400 µM [1, 25]: 97.4%
- activity at 400 µM [1, 26]: 103%
- Lag Phase ([1]; complex medium, 4 µM): 107,4%
- Lag Phase ([1]; complex medium, 40 µM): 111,1%
- Lag Phase ([1]; complex medium, 400 µM): 118,5%
- Lag Phase ([1]; minimal medium, 4 µM): 88,9%
- Lag Phase ([1]; minimal medium, 40 µM): 99,0%
- Lag Phase ([1]; minimal medium, 400 µM): 99,3%
- activity at 4 µM [2, 27]: 100%
- activity at 4 µM [2, 28]: 99.1%
- activity at 40 µM [2, 29]: 98.3%
- activity at 40 µM [2, 30]: 98.8%
- activity at 400 µM [2, 31]: 110%
- activity at 400 µM [2, 32]: 91.2%
- activity at 4 µM [2, 33]: 98.1%
- activity at 4 µM [2, 34]: 102%
- activity at 40 µM [2, 35]: 101%
- activity at 40 µM [2, 36]: 98.7%
- activity at 400 µM [2, 37]: 94.3%
- activity at 400 µM [2, 38]: 52.9%
- Lag Phase ([2]; complex medium, 4 µM): 101,6%
- Lag Phase ([2]; complex medium, 40 µM): 106,3%
- Lag Phase ([2]; complex medium, 400 µM): 141,2%
- Lag Phase ([2]; minimal medium, 4 µM): 100,0%
- Lag Phase ([2]; minimal medium, 40 µM): 103,0%
- Lag Phase ([2]; minimal medium, 400 µM): 181,9%
